# How the values were obtained:
# [1] = tested on: Xanthomonas campestris B-610; assay: Agar-well diffusion, bactericidal activity; assay type: cell-based; settings: 500 μg/mL
# Method: Bacteria M. luteus, P. carotovorum subsp. carotovorum, P. atrosepticum, and P. fluorescens were grown in a meat–peptone medium (BP), and X. campestris was grown in the medium with glucose, yeast extract, and calcium carbonate (GYCa). Solid media contained Bacto agar (18 g/L); pH was adjusted to 7.2–7.4. […] For inoculum preparation, both fungal strains were initially grown on the agar GPY in Petri dishes and then transferred into the seed medium by punching out 5 mm of the agar plate culture with a self-designed cutter.
# (§1) The antibacterial and antifungal activities of the compounds were explored using the agar-well diffusion method and the technique of mycelial radial growth inhibition. The method of diffusion in agar (measuring the diameter of growth inhibition zones) was used to determine the bactericidal activity. The 6-mm wells were made in agar medium (GYCa for Xanthomonas campestris or BP for other bacteria). Bacterial suspensions were distributed over the agar surface, and the tested compound’s solution (150 μL) was added to each well. The width of growth inhibition zones around the wells was determined after incubation for 36–40 h.
# [2] = tested on: Pectobacterium carotovorum subsp. carotovorum MI; assay: Agar-well diffusion, bactericidal activity; assay type: cell-based; settings: 500 μg/mL
# Description: (§2) Plant pathogenic bacterial strains Micrococcus luteus B-109, Pectobacterium atrosepticum 1043, Pectobacterium carotovorum subsp. carotovorum MI, Pseudomonas fluorescens EL-2.1, and Xanthomonas campestris B-610 and the fungal strain Fusarium oxysporum IBPPM 543 were from the Collection of Rhizosphere Microorganisms, IBPPM RAS (WFCC no. 975, WDCM no. 1021) (CM IBPPM, http://collection.ibppm.ru). The pathogenic fungus Phytophthora cactorum VKM F-985, provided by the All-Russian Collection of Microorganisms (VKM) and deposited at the A.E. Favorsky Irkutsk Institute of Chemistry, SB RAS, was also used as a test organism. Bacteria M. luteus, P. carotovorum subsp. carotovorum, P. atrosepticum, and P. fluorescens were grown in a meat–peptone medium (BP), and X. campestris was grown in the medium with glucose, yeast extract, and calcium carbonate (GYCa). Solid media contained Bacto agar (18 g/L); pH was adjusted to 7.2–7.4. All bacterial cultures were grown at 28 °C. The mycelial cultures of F. oxysporum and P. cactorum were grown on a glucose–peptone–yeast (GPY) nutrient medium at 27 °C. For inoculum preparation, both fungal strains were initially grown on the agar GPY in Petri dishes and then transferred into the seed medium by punching out 5 mm of the agar plate culture with a self-designed cutter.
# as §1
# [3] = tested on: Micrococcus luteus B-109; assay: Agar-well diffusion, bactericidal activity; assay type: cell-based; settings: 500 μg/mL
# Description: as §2, §1
# [4] = tested on: Pectobacterium atrosepticum 1043; assay: Agar-well diffusion, bactericidal activity; assay type: cell-based; settings: 500 μg/mL
# Description: as §2, §1
# [5] = tested on: Pseudomonas fluorescens EL-2.1; assay: Agar-well diffusion, bactericidal activity; assay type: cell-based; settings: 500 μg/mL
# Description: as §2, §1
# [6] = tested on: HuTu 80; assay: MTT cell viability test, HuTu 80; assay type: cell-based, human; settings: Homo sapiens, HuTu80; incubation time 24 h
# Method: (§3) Human cell cultures of tumor origin—HeLa (cervical tumor), HuTu 80 (human duodenal adenocarcinoma), ChangLiver (human liver HeLa-like line), and normal cell line WI38, VA 13 subline 2RA is a diploid human cell strain composed of fibroblasts derived from healthy lung tissue provided by The Gamaleya National Center for Epidemiology and Microbiology, as well as the Institute of Cytology of the Russian Academy of Sciences. They were grown in a nutrient medium DMEM (PanEco, Moscow, Russia) and MEM (PanEco, Moscow, Russia), containing fetal bovine serum (10% by volume) (ThermoFisher Scientific, Paisley, UK), Glutamax (2 mM) (Gibco, Scotland, UK), and penicillin-streptomycin (1% by volume) (PanEco, Moscow, Russia). The cultivation was carried out at 37 °C in a humidified CO2 atmosphere (5%).
# (§4) Cell viability was determined by the MTT test. Cells were seeded in a 96-well plate in the amount of 1 × 10^4 cells/200 µL of complete nutrient medium and cultured at 37 °C in CO2 (5%). After 24 h of incubation, various concentrations of test compounds in the range of 0.1 to 100 μM were added to the cell cultures, and then the cells were cultured under the same conditions for 24 and 72 h. For each concentration, the experiment was carried out in triplicate.
# (§5) All compounds were dissolved in DMSO and then diluted with the medium to the required concentration. […] The DMSO was also added to the control wells in a volume of 1%. After the incubation time, MTT (3-(4,5-dimethylthiazol-2-yl)-2,5-diphenyltetrazolium bromide, 5 mg/mL) was added to each well, and plates were additionally incubated for 2 h (until the characteristic color appeared).
# (§6) Using a plate analyzer (Cytation3, BioTech Instruments Inc., Winooski, VT, USA), the optical density was determined at 530 nm.
# (§7) The IC50 parameter was calculated using the AAT Bioquest program.
# (§8) The selectivity index (SI) is calculated as the ratio between the IC50 for normal cells and the IC50 for cancer cells.
# [7] = tested on: M-HeLa; assay: MTT cell viability test, M-HeLa; assay type: cell-based, human; settings: Homo sapiens, M-HeLa; incubation time 24 h
# Method: as §3, §4, §5, §6, §7, §8
# [8] = tested on: Chang Liver; assay: MTT cell viability test, Chang liver; assay type: cell-based; settings: Homo sapiens, incubation time 24 h
# Method: as §3, §4, §5, §6, §7
SMILES,IC50 [7] [µM],melting point [°C],"width of the inhibition zone (mm), X. campestris [1] [mm]","width of the inhibition zone (mm), P. carotovorum subsp. carotovorum [2] [mm]","width of the inhibition zone (mm), M. luteus [3] [mm]","width of the inhibition zone (mm), P. atrosepticum [4] [mm]","width of the inhibition zone (mm), Ps. fluorescens [5] [mm]",IC50 [6] [µM],IC50 [8] [µM]
"N=C(NCCCCCCNC(=N)NC(=N)Nc1ccc(Cl)cc1)NC(=N)Nc1ccc(Cl)cc1 [Chlorohexidin, chlorohexidin, reference compound]",,,5,5,5,4,4,,
"O=C1C(=O)N(Cc2c(F)cccc2F)c2ccc(F)cc21 [Compound 3c, 1-(2,6-Difluorobenzyl)-5-fluoroindoline-2,3-dione]",65.7 ± 5.9,131 to 132,,,,,,41.2 ± 2.7,95.5 ± 8
"O=C1C(=O)N(Cc2cccc(C(F)(F)F)c2)c2ccc(F)cc21 [Compound 3e, 5-Fluoro-1-(3-(trifluoromethyl)benzyl)indoline-2,3-dione]",,170 to 171,,,,,,,
"O=C1C(=O)N(Cc2c(F)c(F)c(F)c(F)c2F)c2ccc(F)cc21 [Compound 3f, 5-Fluoro-1-((perfluorophenyl)methyl)indoline-2,3-dione]",100 ± 7.4,112 to 113,,,,,,92 ± 6.4,> 100

# Further lines, with some results ahead:
IC50 [7] [µM],melting point [°C],SMILES,"width of the inhibition zone (mm), X. campestris [1] [mm]","width of the inhibition zone (mm), P. carotovorum subsp. carotovorum [2] [mm]","width of the inhibition zone (mm), M. luteus [3] [mm]","width of the inhibition zone (mm), P. atrosepticum [4] [mm]","width of the inhibition zone (mm), Ps. fluorescens [5] [mm]",IC50 [6] [µM],IC50 [8] [µM]
44.7 ± 3.3,111 to 112,"Cc1ccc(CN2C(=O)C(=O)c3cc(F)ccc32)cc1 [Compound 4a, 5-Fluoro-1-(4-methylbenzyl)indoline-2,3-dione]",,,,,,44 ± 2.9,80 ± 5.8
58.8 ± 4.4,97 to 98,"Cc1cc(C)cc(CN2C(=O)C(=O)c3cc(F)ccc32)c1 [Compound 4b, 1-(3,5-Dimethylbenzyl)-5-fluoroindoline-2,3-dione]",,,,,,50 ± 3.8,63.2 ± 5.5
> 100,123 to 124,"CC(C)(C)c1ccc(CN2C(=O)C(=O)c3cc(F)ccc32)cc1 [Compound 4c, 1-(4-(tert-Butyl)benzyl)-5-fluoroindoline-2,3-dione]",,,,,,43 ± 3,92.1 ± 7.4
58.4 ± 4.1,136 to 137,"CC(C)(C)c1cc(CN2C(=O)C(=O)c3cc(F)ccc32)cc(C(C)(C)C)c1 [Compound 4d, 1-(3,5-Di-tert-butylbenzyl)-5-fluoroindoline-2,3-dione]",,,,,,33.3 ± 2.3,39.4 ± 2.8

# — article PMC10607100, “Anticancer and Antiphytopathogenic Activity of Fluorinated Isatins and Their Water-Soluble Hydrazone Derivatives” (International Journal of Molecular Sciences, 2023)
